Source: patent US20120172228A1, “ALCOHOL ALKOXYLATES AS ADJUVANTS FOR AGROCHEMICAL FORMULATIONS” (SYNGENTA CROP PROTECTION, LLC, priority 2009, published 2012)

Experiments:
[1] = system: xanthium strumarium (XANST), setaria viridis (SETVI), abutilon theophrasti (ABUTH), chenopodium album (CHEAL); assay: Adjuvant with herbicide fomesafen, track sprayer, mean across four weed species; format: in vivo; conditions: fomesafen 60 or 120 g/ha; butylene oxide adjuvants 0.2%, TEHP and Turbocharge 0.5%; 7 and 13 days
Protocol: In this example Sample 13 from Table 1 was compared to the oil adjuvant blend Turbocharge™. The herbicide fomesafen was applied to the weed species xanthium strumarium (XANST), setaria viridis (SETVI), abutilon theophrasti (ABUTH), and chenopodium album (CHEAL) at rates of 60 or 120 grams per hectare, using a laboratory track sprayer. […] Four effects were evaluated: pesticide rate (2 levels), adjuvant type (two levels), weed species (four levels) and days after application (three levels). A standard simple linear model was constructed to judge the significance of these effects. […] A model was fitted using multiple linear regression using the statistics package JMP (SAS group). The effect of each adjuvant was pulled out from the model and the least significant differences evaluated using a Student's t method. In further examples, where a greater number than two adjuvants were compared, Tukey's HSD method was used. […]
In this example the rate response of the butylene oxide adjuvant number 13 of Table 1 was measured to display the excellent performance of this adjuvant at very low rates. compared to the adjuvant Brij™96V. […]
In this example the rate response of the butylene oxide sample 27 of Table 1 was measured, displaying the excellent performance of this adjuvant compared to the commercial adjuvant Turbocharge™, used at a rate of 0.5% by volume. […]

[2] = system: digitaria sanguinalis (DIGSA); assay: Adjuvant with herbicide nicosulfuron on DIGSA; format: in vivo; conditions: nicosulfuron 30 or 60 g/ha; adjuvants 0.2% of spray water; 14 and 21 days after application
Protocol: In this example Sample 13 from Table 1 was compared to the oil adjuvant blend Turbocharge™. The herbicide fomesafen was applied to the weed species xanthium strumarium (XANST), setaria viridis (SETVI), abutilon theophrasti (ABUTH), and chenopodium album (CHEAL) at rates of 60 or 120 grams per hectare, using a laboratory track sprayer. Each experiment was replicated four times and the percentage damage to the weeds was assessed visually at time periods of 7, 14 and 21 days after application. Each adjuvant was applied at a rate of 0.5% of the volume of the spray water. Four effects were evaluated: pesticide rate (2 levels), adjuvant type (two levels), weed species (four levels) and days after application (three levels). […] The effect of each adjuvant was pulled out from the model and the least significant differences evaluated using a Student's t method. […]
In this example the butylene oxide adjuvant Sample 13 of Table 1 was compared to the commercial oil adjuvant blend Atplus™411F. […] Each experiment was replicated four times and the percentage damage to the weeds was assessed visually at time periods of 14 and 21 days after application. […]
In this example the responses of the butylene oxide adjuvants 13, 17, 19, 21, 22 and 23 of Table 1 were measured at an application rate of 0.2% of the volume of the spray solution used. […]

Structure (SMILES): CCCCC(CC)COP(=O)(OCC(CC)CCCC)OCC(CC)CCCC (centres unmarked) [TEHP, tris 2-ethylhexyl phosphate]
- Mean kill across weeds (%) [1]: 72.7%
- mean efficacy (percentage damage to the weeds), DIGSA [2]: 69.17; A %
